{
  "source": "ChEMBL document CHEMBL1150087",
  "about": "“Structural Revision of Physalin H Isolated from Physalis angulata” (1995)",
  "system": "HeLa",
  "assay": "Cytotoxicity against human HeLa cells",
  "format": "functional",
  "note": "Calls of active or inactive are those of the source. The rule behind the calls is not given here.",
  "data": [
    {"smiles": "C[C@@]12C[C@H]3OC(=O)[C@@H]1CO[C@@]14O[C@]5([C@H]2C1=O)[C@@](O)(CC[C@H]1[C@H]4C[C@@H](O)[C@@]2(O)CC=CC(=O)[C@]12C)C(=O)O[C@@]35C", "values": [
      {"measurement": "ID50", "value": "inactive"}
    ]}
  ]
}
